Data on one substance can be found in patent publication US8290713B2, “Method for predicting protein aggregation and designing aggregation inhibitors” (Lonza Biologics PLLC, priority 2006, dated 2012).

In this assay the target is ASYN (α-synuclein) (Homo sapiens, UniProt P37840). Briefly: ASYN aggregation assay in TBS monitored by thioflavin T fluorescence. To be noted: 50 μM ASYN, 100 μM inhibitor, 50 mM tris, 150 mM NaCl, 20 μM Thioflavin T, 37 C with shaking, 48 hours; sigmoidal fit. It counts as biochemical. The protocol:
All peptides were tested for inhibition of ASYN aggregation in TBS by carrying out aggregation assays with 50 μM ASYN and 100 μM inhibitor with 50 mM tris and 150 mM NaCl and 20 μM Thioflavin T. The reaction volume was 200 μL. Each reaction was set up in a 96 well polypropylene plate with ASYN only and buffer only controls. The reactions were incubated at 37 C with shaking for 48 hours and aggregation was monitored by reading thioflavin T fluorescence.
The kinetic traces were fitted using Zyentiafit software which fits the data to a Sigmoidal function f(x)=k+A/(1+exp(−b(t−t0))) from which the lag time, rate of aggregation and total change in ThT fluorescence may be calculated.

On to Ac-hpviva-NH2 [ZP-0164], for which the “% decrease in ThT fluorescence” value is recorded as 3.7%, the “% decrease in rate of aggregation” value was −2.3% and the “% increase in Lag phase” value was determined as 43.0%.
